PubChem BioAssay (NCI)
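GI50 is the concentration that inhibits growth by half. The concentration for full growth arrest is given as TGI.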

Experiments:
Experiment in all cases: NCI tumour cell line growth inhibition, 384-well format
K-562 leukemia = test system: K-562 leukemia
HOP-62 NSCLC = test system: HOP-62 NSCLC
MDA-MB-231 breast = test system: MDA-MB-231 breast
MDA-MB-435 melanoma = test system: MDA-MB-435 melanoma
TK-10 renal = test system: TK-10 renal
HOP-92 NSCLC = test system: HOP-92 NSCLC
MCF7 breast = test system: MCF7 breast
SF-268 CNS = test system: SF-268 CNS
OVCAR-8 ovarian = test system: OVCAR-8 ovarian
NCI-H522 lung = test system: NCI-H522 lung
EKVX NSCLC = test system: EKVX NSCLC
A498 renal = test system: A498 renal
HCC-2998 colon = test system: HCC-2998 colon
786-0 renal = test system: 786-0 renal
MDA-MB-468 breast = test system: MDA-MB-468 breast
NCI-H226 lung = test system: NCI-H226 lung
OVCAR-4 ovarian = test system: OVCAR-4 ovarian
OVCAR-5 ovarian = test system: OVCAR-5 ovarian
BT-549 breast = test system: BT-549 breast
UACC-62 melanoma = test system: UACC-62 melanoma
UACC-257 melanoma = test system: UACC-257 melanoma
IGROV1 ovarian = test system: IGROV1 ovarian
ACHN renal = test system: ACHN renal
MALME-3M melanoma = test system: MALME-3M melanoma
SNB-75 CNS = test system: SNB-75 CNS
RXF 393 renal = test system: RXF 393 renal
SW-620 colon = test system: SW-620 colon
SK-OV-3 ovarian = test system: SK-OV-3 ovarian
M14 melanoma = test system: M14 melanoma
NCI/ADR-RES ovarian = test system: NCI/ADR-RES ovarian
A549 NSCLC = test system: A549 NSCLC
HS 578T breast = test system: HS 578T breast
SK-MEL-28 melanoma = test system: SK-MEL-28 melanoma
U251 glioblastoma = test system: U251 glioblastoma
CCRF-CEM leukemia = test system: CCRF-CEM leukemia
SK-MEL-5 melanoma = test system: SK-MEL-5 melanoma
DU-145 prostate = test system: DU-145 prostate
SF-539 CNS = test system: SF-539 CNS
NCI-H460 NSCLC = test system: NCI-H460 NSCLC
CAKI-1 renal = test system: CAKI-1 renal
HT29 colon = test system: HT29 colon
MOLT-4 leukemia = test system: MOLT-4 leukemia
SN12C renal = test system: SN12C renal
SNB-19 CNS = test system: SNB-19 CNS
OVCAR-3 ovarian = test system: OVCAR-3 ovarian
HCT-15 colon = test system: HCT-15 colon
RPMI-8226 leukemia = test system: RPMI-8226 leukemia
SF-295 CNS = test system: SF-295 CNS
HCT-116 colon = test system: HCT-116 colon
COLO 205 colon = test system: COLO 205 colon
NCI-H322M lung = test system: NCI-H322M lung
NCI-H23 lung = test system: NCI-H23 lung
T-47D breast = test system: T-47D breast
UO-31 renal = test system: UO-31 renal
LOX IMVI melanoma = test system: LOX IMVI melanoma
PC-3 prostate = test system: PC-3 prostate
HL-60(TB) leukemia = test system: HL-60(TB) leukemia
KM12 colon = test system: KM12 colon

O=C(c1ccc(F)c(F)c1Nc1ccc(I)cc1F)N1CC(O)([C@H]2CCCCN2)C1
GI50 (K-562 leukemia): 1170 nM | TGI (K-562 leukemia): 2420 nM | GI50 (HOP-62 NSCLC): 1280 nM | TGI (HOP-62 NSCLC): 8420 nM | GI50 (MDA-MB-231 breast): 477 nM | TGI (MDA-MB-231 breast): 3630 nM | GI50 (MDA-MB-435 melanoma): 415 nM | TGI (MDA-MB-435 melanoma): 11600 nM | GI50 (TK-10 renal): 3120 nM | TGI (TK-10 renal): 11800 nM | GI50 (HOP-92 NSCLC): 888 nM | TGI (HOP-92 NSCLC): 2170 nM | GI50 (MCF7 breast): 1880 nM | TGI (MCF7 breast): 3620 nM | GI50 (SF-268 CNS): 1700 nM | TGI (SF-268 CNS): 5370 nM | GI50 (OVCAR-8 ovarian): 6520 nM | TGI (OVCAR-8 ovarian): 19600 nM | GI50 (NCI-H522 lung): 4330 nM | TGI (NCI-H522 lung): 16900 nM | GI50 (EKVX NSCLC): 2750 nM | TGI (EKVX NSCLC): 12600 nM | GI50 (A498 renal): 1220 nM | TGI (A498 renal): 2500 nM | GI50 (HCC-2998 colon): 200 nM | TGI (HCC-2998 colon): 1210 nM | GI50 ([…]-0 renal): 1240 nM | TGI (786-0 renal): 2590 nM | GI50 (MDA-MB-468 breast): 2730 nM | TGI (MDA-MB-468 breast): 5070 nM | GI50 (NCI-H226 lung): 1640 nM | TGI (NCI-H226 lung): 10200 nM | GI50 (OVCAR-4 ovarian): 10400 nM | TGI (OVCAR-4 ovarian): 22200 nM | GI50 (OVCAR-5 ovarian): 668 nM | TGI (OVCAR-5 ovarian): 11900 nM | GI50 (BT-549 breast): 2250 nM | TGI (BT-549 breast): 5840 nM | GI50 (UACC-62 melanoma): 104 nM | TGI (UACC-62 melanoma): 378 nM | GI50 (UACC-257 melanoma): 156 nM | TGI (UACC-257 melanoma): 428 nM | GI50 (IGROV1 ovarian): 500 nM | TGI (IGROV1 ovarian): 2990 nM | GI50 (ACHN renal): 1870 nM | TGI (ACHN renal): 15400 nM | GI50 (MALME-3M melanoma): 31.8 nM | TGI (MALME-3M melanoma): 118 nM | GI50 (SNB-75 CNS): 1620 nM | TGI (SNB-75 CNS): 4340 nM | GI50 (RXF 393 renal): 1510 nM | TGI (RXF 393 renal): 3180 nM | GI50 (SW-620 colon): 371 nM | TGI (SW-620 colon): 10400 nM | GI50 (SK-OV-3 ovarian): 4990 nM | TGI (SK-OV-3 ovarian): 17800 nM | GI50 (M14 melanoma): 51.2 nM | TGI (M14 melanoma): 220 nM | GI50 (NCI/ADR-RES ovarian): 9210 nM | TGI (NCI/ADR-RES ovarian): 21300 nM | GI50 (A549 NSCLC): 807 nM | TGI (A549 NSCLC): 2610 nM | GI50 (HS 578T breast): 4160 nM | TGI (HS 578T breast): 16300 nM | GI50 (SK-MEL-28 melanoma): 187 nM | TGI (SK-MEL-28 melanoma): 528 nM | GI50 (U251 glioblastoma): 2570 nM | TGI (U251 glioblastoma): 11300 nM | GI50 (CCRF-CEM leukemia): 1930 nM | TGI (CCRF-CEM leukemia): 3570 nM | GI50 (SK-MEL-5 melanoma): 281 nM | TGI (SK-MEL-5 melanoma): 1620 nM | GI50 (DU-145 prostate): 3810 nM | TGI (DU-145 prostate): 14800 nM | GI50 (SF-539 CNS): 1620 nM | TGI (SF-539 CNS): 3020 nM | GI50 (NCI-H460 NSCLC): 995 nM | TGI (NCI-H460 NSCLC): 2280 nM | GI50 (CAKI-1 renal): 994 nM | TGI (CAKI-1 renal): 14400 nM | GI50 (HT29 colon): 185 nM | TGI (HT29 colon): 1350 nM | GI50 (MOLT-4 leukemia): 1620 nM | TGI (MOLT-4 leukemia): 3000 nM | GI50 (SN12C renal): 1520 nM | TGI (SN12C renal): 13200 nM | GI50 (SNB-19 CNS): 4050 nM | TGI (SNB-19 CNS): 17300 nM | GI50 (OVCAR-3 ovarian): 3430 nM | TGI (OVCAR-3 ovarian): 13700 nM | GI50 (HCT-15 colon): 3330 nM | TGI (HCT-15 colon): 14500 nM | GI50 (RPMI-8226 leukemia): 1780 nM | TGI (RPMI-8226 leukemia): 4380 nM | GI50 (SF-295 CNS): 13400 nM | TGI (SF-295 CNS): 26300 nM | GI50 (HCT-116 colon): 615 nM | TGI (HCT-116 colon): 2060 nM | GI50 (COLO 205 colon): 101 nM | TGI (COLO 205 colon): 589 nM | GI50 (NCI-H322M lung): 1510 nM | TGI (NCI-H322M lung): 13700 nM | GI50 (NCI-H23 lung): 422 nM | TGI (NCI-H23 lung): 2050 nM | GI50 (T-47D breast): 2650 nM | TGI (T-47D breast): 6460 nM | GI50 (UO-31 renal): 1610 nM | TGI (UO-31 renal): 5390 nM | GI50 (LOX IMVI melanoma): 389 nM | TGI (LOX IMVI melanoma): 1660 nM | GI50 (PC-3 prostate): 5640 nM | TGI (PC-3 prostate): 16800 nM | GI50 (HL-60(TB) leukemia): 212 nM | TGI (HL-60(TB) leukemia): 1260 nM | GI50 (KM12 colon): 660 nM | TGI (KM12 colon): 2750 nM
